Data from patent US20240277658A1, “NLRP3 ACTIVATORS FOR USE IN THE TREATMENT OF INFECTIOUS DISEASES OR CANCER BY ACTIVATING NLRP3 INFLAMMASOME” (ALBERT-LUDWIGS-UNIVERSITÄT FREIBURG, priority 2020, published 2024).
Read-outs that look alike come from different tables or passages of the source.

System: BMDCs
Assay: LDH release (lytic cell death, pyroptosis) from LPS-primed BMDCs
Type: cell-based, mouse
Details: for Average (% positive control): LDH release; for cytotoxicity at 10 µM / cytotoxicity at 20 µM / cytotoxicity at 25 µM / cytotoxicity at 50 µM / cytotoxicity at 18.75 µM: Mus musculus, BMDC; for cytotoxicity at 50 µM: LPS-primed BMDCs
Outline: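 LDH released into medium, detected colorimetrically, served as the pyroptosis read-out in triplicate. LPS-primed (50 ng ml^−1, 3 h) murine bone marrow-derived dendritic cells received test compounds, typically 50 μM, or nigericin (5 μM), R837 or CL097 (100 μM) for 3 hours.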

O=C(Nc1ccccc1)Nc1ccc2ncccc2c1 [EN22, 1-phenyl-3-(quinolin-6-yl)urea]
Average (% positive control) (10 μM, positive control EN22 10 μM): 100.000 % positive control
Average (% positive control) (20 μM, positive control EN22 20 μM): 100.000 % positive control
Average (% positive control) (25 μM, positive control EN22 25 μM): 100.000 % positive control
Average (% positive control) (compound 50 μM, positive control nigericin 5 μM): 95.180 % positive control
cytotoxicity at 10 µM (10 μM, individual replicate values, read-out: LDH release (% of max.)): 78.1%
cytotoxicity at 10 µM (10 μM, read-out: Average LDH release (% of max.)): 76.8%
cytotoxicity at 20 µM (20 μM, individual replicate values, read-out: LDH release (% of max.)): 49.4%
cytotoxicity at 20 µM (20 μM, read-out: Average LDH release (% of max.)): 53.3%
cytotoxicity at 25 µM (25 μM, EN11 series table, read-out: Average LDH release (% of max.)): 50.8%
cytotoxicity at 25 µM (25 μM, individual replicate values, EN11 series table, read-out: LDH release (% of max.)): 51.9%
cytotoxicity at 50 µM (compound 50 μM, read-out: Average LDH release (% of max.)): 69.6%
cytotoxicity at 25 µM (section 1.2, 25 μM, read-out: Average LDH release (% of max.)): 30%
cytotoxicity at 25 µM (section 1.2, single replicates, 25 μM, read-out: LDH release (% of max.)): 29.6%
cytotoxicity at 18.75 µM (section 1.4, 18.75 μM, read-out: Average LDH release (% of max.)): 71.3%
cytotoxicity at 18.75 µM (section 1.4, single replicates, 18.75 μM, read-out: LDH release (% of max.)): 71.4%
cytotoxicity at 50 µM (single replicates, compound 50 μM, read-out: LDH release (% of max.)): 59.4%
Average (% positive control) (section 1.2, 25 μM, positive control EN22 25 μM): 100.000 % positive control
Average (% positive control) (section 1.4, 18.75 μM, positive control EN22 18.75 μM): 100.000 % positive control
